Measured values from patent publication US20050119272A1, “Use of phosphodiesterase antagonists to treat insulin resistance” (DiaMedica Inc., priority 2002, published 2005).

Columns and labels:
cats = assay: Development of insulin resistance in cats after intraportal muscarinic antagonists; format: in vivo, cat
From the text: To avoid the complexity of the reaction to hypoglycemia, the rapid insulin sensitivity test (RIST) was employed (Lautt et al., Can. J. Physiol. Pharmacol. 76:1080 (1998)) wherein a euglycemic clamp was used following the administration of insulin and the response was quantitated as the amount of glucose required to be infused over the test period in order to hold arterial blood glucose levels constant.

atropine-treated rats = assay: Rapid insulin sensitivity test (RIST) in the atropine model of 75% HDIR in rats; format: in vivo, rat
Description: Male Sprague Dawley rats (250-300 g) were allowed free access to water and normal rodent food for 1 week prior to all studies. Rats were fasted for 8 hours overnight and fed for 2 hours before the start of study. Rats were anesthetized with pentobarbital-sodium (65 mg/ml, ip injection, 0.1 ml/100 g body weight). Animals were placed on a heated thermostatically controlled surgical table to maintain body temperature during surgery and the experimental procedure. An extra-corporeal arterial-venous shunt (the loop) was established between the right femoral artery and right femoral vein, according to a published, standard operating procedure developed in our laboratory (Xie et al., 1996). The loop allows for regular blood sampling of arterial blood throughout the experiment as well as infusion of intravenous drugs and monitoring of arterial blood pressure. […] A laparotomy was performed and an indwelling portal venous catheter was inserted using a portal vein puncture technique. The portal catheter was used to administer the phosphodiesterase inhibitor directly to the liver. […] At this point, blood samples (25 μl) were taken at regular intervals from the loop and analyzed for glucose concentration. […] Glucose levels were monitored every 2 minutes during and after the infusion of insulin. […]

For `CN1CCN(CC(=O)N2c3ccccc3C(=O)Nc3cccnc32)CC1` [pirenzepine], which “dose achieving a similar degree of insulin resistance” value (cats) is on record?
The value was 10^−7 mmol/kg.

What does the source list for `CCCOc1ccccc1-c1nc2nn[nH]c2c(=O)[nH]1` [zaprinast]?
RIST index (atropine-treated rats; after zaprinast 0.1 mg/kg ipv, following atropine-induced 75% HDIR, n=8): 157.4 ± 6.1 mg/kg; reversal of HDIR produced by atropine (atropine-treated rats; zaprinast 0.1 mg/kg ipv, rats): able to reverse the HDIR produced by atropine

`COc1ccccc1CNCCCCCCNCCCCCCCCNCCCCCCNCc1ccccc1OC` [methoctramine] was tested. Which “dose required to produce a full insulin resistance” value (cats; administered into the portal vein) did it give?
The value was 10^−6 μmol/kg.
